12 compounds from ChEMBL document CHEMBL1201862, “PubChem BioAssay data set” (2004) can be followed below.

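These data come from cells grown in 96-well plates and exposed to compound for 48 hours at five concentrations. GI50 is the concentration that inhibits growth by half.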 The source made the active and inactive calls. Cut-off read from the data, not from the text of the source: active = GI50 up to about 1.1 µM and inactive = higher.

Some test systems named below: 786-0; A498; BT-549; CCRF-CEM; COLO 205; HL-60; IGROV-1; K562; NCI-H226; SF-268; SF-295; SK-MEL-2; SK-MEL-5; T47D; UACC-62; UO-31; LOX IMVI; SNB-75; SW-620; HOP-92.
What all share (experiment): growth of human tumour cells (NCI), 48 h

Regarding `COc1c(-c2ccc(F)cc2)oc2c(CC(=O)O)cccc2c1=O`, the GI50 with 786-0, in the test on A498, in the test with BT-549, with CCRF-CEM, in the test with COLO 205 and in the test with HL-60 was > 100 µM (inactive) in each case. Further, the GI50 in the test with IGROV-1, in the test on K562, in the test on NCI-H226, in the test with SF-268, in the test on SF-295 and with SK-MEL-2 was > 100 µM (inactive) each time. Moreover, the GI50 is > 100 µM (inactive) in the test with SK-MEL-5, > 100 µM (inactive) with T47D, > 100 µM (inactive) in the test with UACC-62 and 40.9 µM (inactive) in the test on UO-31.
Turning to `COc1ccc(C2(CC(C)C)CCN(S(=O)(=O)c3ccc(C)cc3)C2)cc1OC` (stereo not given), the GI50 with 786-0 was 27.8 µM (inactive); with BT-549, 71.1 µM (inactive); in the test on CCRF-CEM, 17.9 µM (inactive); in the test on COLO 205, 25.8 µM (inactive); in the test with IGROV-1 it was 50.2 µM (inactive); with K562, 2.88 µM (inactive). Moreover, the GI50 with LOX IMVI is 19.5 µM (inactive); in the test with NCI-H226 it was 22.5 µM (inactive); with SF-268, 21.9 µM (inactive); in the test with SF-295, 36.5 µM (inactive); in the test on SK-MEL-2 it was 20.7 µM (inactive); in the test on SK-MEL-5, 13.6 µM (inactive). Also, the GI50 with SNB-75 is 36.9 µM (inactive); with SW-620, 99.5 µM (inactive); in the test on T47D, 14.4 µM (inactive); in the test on UACC-62, 43.9 µM (inactive); with UO-31 it was 41.6 µM (inactive).
Take `COC(=O)CCC1(C)C2CCC1(C)/C(=N/O)C2` (stereo not given): the GI50 with 786-0, with BT-549, in the test with CCRF-CEM, with COLO 205, with IGROV-1 and in the test on K562 was > 100 µM (inactive) each time. The GI50 with NCI-H226, in the test with SF-268, in the test with SF-295, with SK-MEL-2, in the test with SK-MEL-5 and in the test with SNB-75 was > 100 µM (inactive) throughout. The GI50 in the test on SW-620, with T47D, with UACC-62 and in the test on UO-31 was > 100 µM (inactive) in each case.
Take `O=S1(=O)OCCOS(=O)(=O)C1F`: the GI50 in the test with 786-0 is > 100 µM (inactive); in the test with BT-549 it was 0.0293 µM (active); with CCRF-CEM it was > 100 µM (inactive); in the test with COLO 205, > 100 µM (inactive); in the test with HL-60, > 100 µM (inactive); with K562, > 100 µM (inactive). Further, the GI50 in the test with LOX IMVI, with NCI-H226, with SF-268, in the test on SF-295, in the test with SK-MEL-2 and with SK-MEL-5 was > 100 µM (inactive) throughout. Besides, the GI50 in the test on SNB-75, in the test on SW-620, with T47D, in the test with UACC-62 and in the test on UO-31 was > 100 µM (inactive) throughout.
As for `Nc1nc(N)c2c3c(cnc2n1)CC(c1ccccc1)CC3` (stereo not given), the GI50 in the test on 786-0 is 7.83 µM (inactive); in the test on A498, 24.8 µM (inactive); in the test on BT-549 it was 17 µM (inactive); with COLO 205 it was 35 µM (inactive); with HL-60 it was 6.43 µM (inactive); with IGROV-1, 0.728 µM (active). Moreover, the GI50 with K562 is 0.875 µM (active); with LOX IMVI, 1.71 µM (inactive); with NCI-H226, 93.1 µM (inactive); with SF-268 it was 11.9 µM (inactive); with SF-295 it was 10.1 µM (inactive); in the test with SK-MEL-2, 32.3 µM (inactive). The GI50 with SK-MEL-5 is 1.01 µM (active); in the test with SNB-75, 16.4 µM (inactive); in the test with SW-620, 11.4 µM (inactive); in the test with T47D, 23.9 µM (inactive); in the test with UACC-62, 1.11 µM (active).
Turning to `N#C/C(N)=C(C#N)/N=C/Nc1ccccc1N`, the GI50 in the test with 786-0, with A498, with BT-549, in the test on CCRF-CEM, in the test with COLO 205 and in the test with HL-60 was > 100 µM (inactive) each time. Also, the GI50 in the test on IGROV-1, in the test with K562, with LOX IMVI, with NCI-H226, in the test on SF-268 and in the test with SF-295 was > 100 µM (inactive) in each case. Besides, the GI50 in the test with SK-MEL-2, in the test with SK-MEL-5, in the test on SNB-75, in the test with SW-620, in the test with T47D and in the test on UACC-62 was > 100 µM (inactive) throughout. Moreover, the GI50 in the test on UO-31 is > 100 µM (inactive).
Take `N#CCCN(C(=O)Nc1ccc(NC(=O)N(CCC#N)c2ccccc2)cc1)c1ccccc1`: the GI50 in the test on 786-0, in the test with A498, with BT-549, with COLO 205, with HL-60 and in the test on IGROV-1 was > 100 µM (inactive) throughout. Besides, the GI50 in the test on K562, with LOX IMVI, in the test with NCI-H226, with SF-268, with SF-295 and in the test on SK-MEL-2 was > 100 µM (inactive) in each case. Besides, the GI50 in the test with SK-MEL-5, in the test on SNB-75, with SW-620, in the test on T47D, with UACC-62 and in the test with UO-31 was > 100 µM (inactive) each time.
As to `CSC(SC)=C(C#N)C(=O)Nc1cccc(Cl)c1`, the GI50 was 33.8 µM (inactive) with 786-0; 61.1 µM (inactive) with A498; 36.6 µM (inactive) with BT-549; 33.1 µM (inactive) in the test with CCRF-CEM; > 100 µM (inactive) with COLO 205; 15.4 µM (inactive) with HL-60. Further, the GI50 with HOP-92 is 21 µM (inactive); in the test on IGROV-1 it was 69.2 µM (inactive); in the test on K562 it was 32.4 µM (inactive); with LOX IMVI, 93.3 µM (inactive); in the test on NCI-H226, > 100 µM (inactive); in the test on SF-268, > 100 µM (inactive). Also, the GI50 in the test with SF-295 was 42.6 µM (inactive); with SK-MEL-2, > 100 µM (inactive); in the test on SK-MEL-5, 10.3 µM (inactive); in the test with SNB-75, > 100 µM (inactive); in the test with SW-620, 39.8 µM (inactive); in the test on UACC-62 it was 59.6 µM (inactive).
For the compound `[N-]=[N+]=NC(c1cn(C2CC(O)C(CO)O2)c(=O)[nH]c1=O)C(Cl)I` (stereo not given), the GI50 in the test with 786-0, in the test on A498, in the test on BT-549, in the test with COLO 205, in the test on IGROV-1 and in the test on NCI-H226 was > 100 µM (inactive) each time. Also, the GI50 with SF-268 is > 100 µM (inactive); in the test on SF-295, > 100 µM (inactive); in the test on SK-MEL-2, > 100 µM (inactive); with SK-MEL-5 it was > 100 µM (inactive); with SNB-75, 33.3 µM (inactive); in the test on SW-620 it was > 100 µM (inactive). Moreover, the GI50 in the test with T47D, with UACC-62 and in the test with UO-31 was > 100 µM (inactive) in each case.
As to `NC(=O)CNC(=O)[C@@H]1CC(OCCC(=O)O)CN1C(=O)C1CCCN1C(=O)OCc1ccccc1` (stereo not given in full), the GI50 in the test on 786-0, with A498, with BT-549, in the test with CCRF-CEM, with COLO 205 and in the test with HL-60 was > 100 µM (inactive) in each case. Further, the GI50 was > 100 µM (inactive) with IGROV-1; > 100 µM (inactive) with K562; > 100 µM (inactive) in the test with LOX IMVI; > 100 µM (inactive) with NCI-H226; 49.2 µM (inactive) with SF-268; > 100 µM (inactive) in the test on SF-295. Besides, the GI50 in the test on SK-MEL-2, with SK-MEL-5, in the test with SNB-75, with SW-620, in the test with T47D and in the test on UACC-62 was > 100 µM (inactive) in each case. In addition, the GI50 with UO-31 is > 100 µM (inactive).
Consider `Cc1nn2c(N)cc(=O)nc2nc1/C=C/c1ccc(N(C)C)cc1`, for which the GI50 in the test on 786-0 was > 28.8 µM (inactive); in the test on BT-549, > 32 µM (inactive); with CCRF-CEM it was < 0.01 µM (active); in the test on COLO 205, 7.74 µM (inactive); with HL-60, < 0.01 µM (active); with IGROV-1, 16.6 µM (inactive). In addition, the GI50 with K562 was 9.08 µM (inactive); with LOX IMVI, 4.11 µM (inactive); with NCI-H226 it was > 66.5 µM (inactive); in the test on SF-268, > 100 µM (inactive); with SF-295, > 79.3 µM (inactive); in the test with SK-MEL-2, > 49.2 µM (inactive). The GI50 was 20.6 µM (inactive) with SK-MEL-5; > 100 µM (inactive) with SW-620; > 100 µM (inactive) in the test with T47D; 5.02 µM (inactive) in the test on UACC-62; 3.94 µM (inactive) with UO-31.
Turning to `O=c1cc(-c2ccccc2)oc2ccc(-c3ccc4oc(-c5ccccc5)cc(=O)c4c3)cc12`, the GI50 in the test on 786-0 was 28.4 µM (inactive); in the test with A498, 14.7 µM (inactive); in the test on BT-549, > 10 µM (inactive); in the test with CCRF-CEM, 18 µM (inactive); in the test with COLO 205 it was 17.1 µM (inactive); in the test with HL-60 it was 10.1 µM (inactive). Also, the GI50 in the test with HOP-92 is 14.4 µM (inactive); in the test with IGROV-1 it was 26.9 µM (inactive); in the test on K562 it was 14.2 µM (inactive); with LOX IMVI it was 17.3 µM (inactive); in the test with SF-295 it was 20.8 µM (inactive); in the test on SK-MEL-2 it was 18.2 µM (inactive). The GI50 is 12.9 µM (inactive) in the test with SK-MEL-5, 30.5 µM (inactive) in the test on SW-620, 14.9 µM (inactive) in the test with UACC-62 and 8.95 µM (inactive) with UO-31.
